Legend:
ethanol ulcer = experiment: Inhibition on ethanol ulcer; format: in vivo, male Spraque-Dawley rats; conditions: rat, oral, 30 minutes before absolute ethanol; for Inhibition %: 32 mg/kg, ulcer area vs control
Description: (A) Inhibition on ethanol ulcer
Five male Spraque-Dawley rats, aged 7 weeks and weighing about 200 g, were used per group for the study on ethanol ulcer after the fast for 24 hours.
Test compound was suspended in 0.1% methylcellulose aqueous solution, and the suspension (5 ml/kg) was orally given to each rat.
The control group was given a vehicle, i.e. 0.1% methylcellulose aqueous solution (5 ml/kg), alone in the same way.
Absolute ethanol (5 ml/kg) was orally administered 30 minutes after dosing with test compound, and one hour later, the rats were sacrificed and their stomachs were removed. The area of ulcers of each rat was measured. The mean area […] in the medicated group was compared with that in the control group.

stress ulcer = experiment: Inhibition on stress ulcer; format: in vivo, Sprague-Dawley rats; conditions: stress ulcer (immobilization, water bath 22° C., seven hours), rat, oral; for Inhibition %: 32 mg/kg, ulcer area vs control
Description: (B) Inhibition on stress ulcer
Five Sprague-Dawley rats weighing about 200 g were used per group. Each animal was immobilized in a small cage and put in a water bath allowing to respire. The temperature of the water bath kept at 22° C. The test compound was administered orally just before the immobilization. Seven hours later, the animals were sacrificed and their stomachs were removed. The stomach was then fixed with 2% formalin. The area of ulcers was measured for each animal. The mean area (mm^2) in the medicated animals was compared with that in the control animals.

## C#CCOCc1c(C)nc2c(OCc3ccccc3Cl)cccn12 [Test Compound (2), 8-(2-Chlorobenzyloxy)-3-(2-propynyloxymethyl)-2-methylimidazo[1,2-a]pyridine]
Ethanol ulcer
  Inhibition %: 98.2%
Stress ulcer
  Inhibition %: 100%

## C#CCc1c(C)nc2c(OCc3ccccc3C)cccn12 [Test Compound (3), 8-(2-Methylbenzyloxy)-3-(2-propynyl)-2-methylimidazo[1,2-a]pyridine]
Ethanol ulcer
  Inhibition %: 91.8%
Stress ulcer
  Inhibition %: 100%

## C#CCOCc1c(C)nc2c(OCc3ccccc3C)cccn12 [Test Compound (1), 8-(2-Methylbenzyloxy)-3-(2-propynyloxymethyl)-2-methylimidazo[1,2-a]pyridine]
Ethanol ulcer
  Inhibition %: 94.4%
  ED50: 1.1 mg/kg
Stress ulcer; 7 h
  ED50: 0.15 mg/kg
Stress ulcer
  Inhibition %: 100%

— patent US4725601A, “Certain imidazo[1,2-a]pyridines useful in the treatment of ulcers” (Fujisawa Pharmaceutical Co., Ltd., priority 1985, dated 1988)
